Experimental findings from US9249116B2, “Enzyme-activating compounds and compositions” (The Board of Trustees of the University of Illinois, priority 2012, dated 2016) are described below.

In data set [1] the test system is U-937 cells (human lymphoma). In words: 72 Hour IC50 cell death assay (sulforhodamine B). In kind it is cell-based. The method, then: After the synthesis was complete, the biological activity of the compounds was evaluated.
U-937 human lymphoma cells were plated into the wells of 96 well plate at a density of 15,000 cells per well in 99 μL of RPMI 1640 growth media with 10% FBS and 1% pen-strep. To each well was added 1 μL of compound stock solutions in DMSO at varying concentrations such that the cells were treated with concentrations between 0 μM and 100 μM compound. Each concentration was tested in quintuplicate per plate. In each plate 5 wells received 20 μM doxorubicin as a positive death control and 5 wells received 1 μL of DMSO as a negative control.
After the 72 hour incubation period, the plates were analyzed using a Sulforhodamine B assay (Vichai and Kirtikara, Nat Protoc 2006, 1, 1112-1116). Specifically, to each well of the plate 25 μL of a 50% (w/v) solution of trichloroacetic acid in H2O was added and the plates were incubated for 4 hours at 4° C. The plates were then washed gently with water five times. The plates were allowed to air dry after which 100 μL of a 0.057% (w/v) Sulforhodamine B in a 1% (v/v) acetic acid solution was added to each well for 30 minutes at room temperature. The plates were gently washed 5 times with 1% (v/v) acetic acid and air dried. 200 μL of 10 mM Tris base (pH 10.4) was added to each well and the plates were placed on an orbital shaker for thirty minutes. The level of SRB was quantified fluorometrically at excitation and emission wavelengths 488 and 585 nm, respectively, on a Molecular Devices plate reader and the percent cell death calculated and normalized to the positive control (100% cell death) and the negative control (0% cell death). The percent cell death was averaged for each compound concentration and plotted as a function of compound concentration. The data were fit to a logistical dose response curve using Table curve 2D and the IC50 value was calculated. The experiment was repeated three times and the average of the calculated IC50 values was reported. The standard error of the mean (SEM) was determined and reported for the triplicate experiments.

The nature of data set [2]: Liver microsome stability assay. It is filed as in vitro ADME. Conditions: rat liver microsomes, 10 μM, LC/MS. The method, then: FIG. 4. Liver Microsome Stability Assay. Compounds (10 μM) incubated with liver microsomes for 3 h and quenched with MeCN containing internal standard, analyzed by LC/MS (280 nm). Next, the metabolic stability of the compounds was evaluated in rat liver microsomes. The compounds were evaluated for 3 hours at 10 μM, and the metabolites were observed by LC/MS.
For orientation: Liver microsomes are vesicles of endoplasmic reticulum, rich in cytochrome P450 enzymes.

Another data set deals with mice. Put plainly: Assessment of toxicity in vivo. The following applies: mice; scale 0 to 3, or time of death. From the text: The level of toxicity was rated on a scale of 0 (no observable adverse effect) to 3 (severe toxicity, almost fatal).
Setting [3] is: read-out: U-937 72 h IC50 (μM), Table 1, U-937 cells, 72 h.

SMILES strings stand for the structures. Read-outs that look alike come from different tables or passages of the source.

Consider `C=CCc1cccc(/C=N/NC(=O)CN2CCN(C(=O)c3ccccc3)CC2)c1O` [Compound 3, N′-(3-allyl-2-hydroxybenzylidene)-2-(4-benzoylpiperazin-1-yl)acetohydrazide], for which the IC50 – broadly, the point on the concentration scale where inhibition reaches its midpoint – in data set [1] (setting [3]) is 12.1 ± 1.3 µM. Also, the “RLM 3 h % Stability” value in data set [2] was determined as 89 ± 4%. In addition, the “Mouse Toxicity” value in the data set on mice turned out to be 3.
The corresponding values for `C=CCc1cccc(/C=N/NC(=O)CN2CCN(Cc3ccc(C#N)cc3)CC2)c1O` [Compound 4, N′-(3-allyl-2-hydroxybenzylidene)-2-(4-(4-cyanobenzyl)piperazin-1-yl)acetohydrazide] are 13.7 ± 0.9 µM, 48 ± 2% and 1.
With `C=CCc1cccc(/C=N/NC(=O)CN2CCN(Cc3ccc(C(F)(F)F)cc3)CC2)c1O` [Compound 8, N′-(3-allyl-2-hydroxybenzylidene)-2-(4-(4-(trifluoromethyl)benzyl)piperazin-1-yl)acetohydrazide], the “RLM 3 h % Stability” value in data set [2] is reported as 16 ± 1%.
Still for that read-out and setting: as for `C=CCc1cccc(/C=N/NC(=O)CN2CCN(C(=O)c3ccc(C(F)(F)F)cc3)CC2)c1O` [Compound 9, N′-(3-allyl-2-hydroxybenzylidene)-2-(4-(4-(trifluoromethyl)benzoyl)piperazin-1-yl)acetohydrazide], the figure is 85 ± 6%.
With `CCCc1cccc(/C=N/NC(=O)CN2CCN(Cc3ccc(S(N)(=O)=O)cc3)CC2)c1O` [Compound 11, 4-((4-(2-(2-(2-hydroxy-3-propylbenzylidene)hydrazinyl)-2-oxoethyl)piperazin-1-yl)methyl)benzenesulfonamide], in data set [2], the “RLM 3 h % Stability” value is 61 ± 2%.
Regarding `CCCc1cccc(/C=N/NC(=O)CN2CCN(C(=O)c3ccccc3)CC2)c1O` [Compound 12, 2-(4-benzoylpiperazin-1-yl)-N′-(2-hydroxy-3-propylbenzylidene)acetohydrazide], the IC50 in data set [1] (setting [3]) was found to be 9.4 ± 1.3 µM. Also, the “RLM 3 h % Stability” value in data set [2] was determined as 71 ± 3%.
The corresponding values for `CCCc1cccc(/C=N/NC(=O)CN2CCN(Cc3ccc(C#N)cc3)CC2)c1O` [Compound 13, 2-(4-(4-cyanobenzyl)piperazin-1-yl)-N′-(2-hydroxy-3-propylbenzylidene)acetohydrazide] are 9 ± 1.2 µM and 30 ± 2%.
The corresponding values for `CCCc1cccc(/C=N/NC(=O)CN2CCN(C(=O)c3ccc(C#N)cc3)CC2)c1O` [Compound 14, 2-(4-(4-cyanobenzoyl)piperazin-1-yl)-N′-(2-hydroxy-3-propylbenzylidene)acetohydrazide] are 12.8 ± 2.7 µM and 61 ± 3%.
For `CCCc1cccc(/C=N/NC(=O)CN2CCN(C(=O)c3ccc(F)cc3)CC2)c1O` [Compound 16, 2-(4-(4-fluorobenzoyl)piperazin-1-yl)-N′-(2-hydroxy-3-propylbenzylidene)acetohydrazide], in data set [1] (setting [3]), the half-maximal inhibitory concentration (IC50) worked out at 7.3 ± 0.9 µM. Besides, the “RLM 3 h % Stability” value in data set [2] is reported as 69 ± 4%.
`CCCc1cccc(/C=N/NC(=O)CN2CCN(Cc3ccc(C(F)(F)F)cc3)CC2)c1O` [Compound 17]: in data set [2], the “RLM 3 h % Stability” value amounted to 15 ± 2%.
For `CCCc1cccc(/C=N/NC(=O)CN2CCN(C(=O)c3ccc(C(F)(F)F)cc3)CC2)c1O` [Compound 18, N′-(2-hydroxy-3-propylbenzylidene)-2-(4-(4-(trifluoromethyl)benzoyl)piperazin-1-yl)acetohydrazide], in data set [2], the “RLM 3 h % Stability” value came to 64 ± 1%.
As to `O=C(CN1CCN(C(=O)c2ccccc2)CC1)N/N=C/c1cc(F)ccc1O` [Compound 21, 2-(4-benzoylpiperazin-1-yl)-N′-(5-fluoro-2-hydroxybenzylidene)acetohydrazide], in data set [1] (setting [3]), the IC50 was 15.7 ± 2.6 µM. Further, the “RLM 3 h % Stability” value in data set [2] was 88 ± 1%.
Regarding `N#Cc1ccc(C(=O)N2CCN(CC(=O)N/N=C/c3cc(F)ccc3O)CC2)cc1` [Compound 23, 2-(4-(4-cyanobenzoyl)piperazin-1-yl)-N′-(5-fluoro-2-hydroxybenzylidene)acetohydrazide], the concentration for half-maximal inhibition (IC50) in data set [1] (U-937, 72 h, read-out: U-937 72 h IC50 (μM)) is 15.3 ± 1.3 µM. For the same compound, the “RLM 3 h % Stability” value in data set [2] was 88 ± 4%.
Regarding `O=C(CN1CCN(C(=O)c2ccc(F)cc2)CC1)N/N=C/c1cc(F)ccc1O` [Compound 25, N′-(5-fluoro-2-hydroxybenzylidene)-2-(4-(4-fluorobenzoyl)piperazin-1-yl)acetohydrazide], the IC50 in data set [1] (setting [3]) was determined as 15.3 ± 0.8 µM. The “RLM 3 h % Stability” value in data set [2] came out at 86 ± 2%.
For `C=CCc1cc(F)cc(/C=N/NC(=O)CN2CCN(Cc3ccc(S(N)(=O)=O)cc3)CC2)c1O` [Compound 29, 4-((4-(2-(2-(3-allyl-5-fluoro-2-hydroxybenzylidene)hydrazinyl)-2-oxoethyl)piperazin-1-yl)methyl)benzenesulfonamide], in data set [2], the “RLM 3 h % Stability” value was determined as 89 ± 3%.
Take `C=CCc1cc(F)cc(/C=N/NC(=O)CN2CCN(Cc3ccc(C#N)cc3)CC2)c1O` [Compound 31, N′-(3-allyl-5-fluoro-2-hydroxybenzylidene)-2-(4-(4-cyanobenzyl)piperazin-1-yl)acetohydrazide]: the half-maximal inhibitory concentration (IC50) in data set [1] (setting [3]) was determined as 12.7 ± 2 µM. The “RLM 3 h % Stability” value in data set [2] was found to be 65 ± 2%.
Regarding `C=CCc1cc(F)cc(/C=N/NC(=O)CN2CCN(C(=O)c3ccc(C#N)cc3)CC2)c1O` [Compound 32, N′-(3-allyl-5-fluoro-2-hydroxybenzylidene)-2-(4-(4-cyanobenzoyl)piperazin-1-yl)acetohydrazide], the “RLM 3 h % Stability” value in data set [2] was 95 ± 4%.
Turning to `C=CCc1cc(F)cc(/C=N/NC(=O)CN2CCN(Cc3ccc(F)cc3)CC2)c1O` [Compound 33, N′-(3-allyl-5-fluoro-2-hydroxybenzylidene)-2-(4-(4-fluorobenzyl)piperazin-1-yl)acetohydrazide], in data set [1] (setting [3]), the IC50 came to 10.3 ± 4.1 µM. The “RLM 3 h % Stability” value in data set [2] stood at 57 ± 1%.
`C=CCc1cc(F)cc(/C=N/NC(=O)CN2CCN(Cc3ccc(C(F)(F)F)cc3)CC2)c1O` [Compound 35, N′-(3-allyl-5-fluoro-2-hydroxybenzylidene)-2-(4-(4-(trifluoromethyl)benzyl)piperazin-1-yl)acetohydrazide]: the “RLM 3 h % Stability” value in data set [2] is recorded as 49 ± 3%.
In the case of `C=CCc1cc(F)cc(/C=N/NC(=O)CN2CCN(C(=O)c3ccc(C(F)(F)F)cc3)CC2)c1O` [Compound 36, N′-(3-allyl-5-fluoro-2-hydroxybenzylidene)-2-(4-(4-(trifluoromethyl)benzoyl)piperazin-1-yl)acetohydrazide], the “RLM 3 h % Stability” value in data set [2] is on record as 90 ± 2%.
Consider `CCCc1cc(F)cc(/C=N/NC(=O)CN2CCN(Cc3ccc(S(N)(=O)=O)cc3)CC2)c1O` [Compound 38, 4-((4-(2-(2-(5-fluoro-2-hydroxy-3-propylbenzylidene)hydrazinyl)-2-oxoethyl)piperazin-1-yl)methyl)benzenesulfonamide], for which, in data set [2], the “RLM 3 h % Stability” value is listed as 62 ± 3%.
On to `CCCc1cc(F)cc(/C=N/NC(=O)CN2CCN(Cc3ccc(C#N)cc3)CC2)c1O` [Compound 40, 2-(4-(4-cyanobenzyl)piperazin-1-yl)-N′-(5-fluoro-2-hydroxy-3-propylbenzylidene)acetohydrazide], for which the half-inhibitory concentration (IC50) in data set [1] (setting [3]) was 11.2 ± 0.9 µM. In addition, in data set [2], the “RLM 3 h % Stability” value stood at 49 ± 5%.
Consider `CCCc1cc(F)cc(/C=N/NC(=O)CN2CCN(C(=O)c3ccc(C#N)cc3)CC2)c1O` [Compound 41, 2-(4-(4-cyanobenzoyl)piperazin-1-yl)-N′-(5-fluoro-2-hydroxy-3-propylbenzylidene)acetohydrazide], for which the “RLM 3 h % Stability” value in data set [2] came out at 66 ± 3%.
In the case of `CCCc1cc(F)cc(/C=N/NC(=O)CN2CCN(Cc3ccc(F)cc3)CC2)c1O` [Compound 42, N′-(5-fluoro-2-hydroxy-3-propylbenzylidene)-2-(4-(4-fluorobenzyl)piperazin-1-yl)acetohydrazide], the concentration for half-maximal inhibition (IC50) in data set [1] (setting [3]) amounted to 7.5 ± 0.7 µM. In addition, the “RLM 3 h % Stability” value in data set [2] was 48 ± 1%.
`CCCc1cc(F)cc(/C=N/NC(=O)CN2CCN(Cc3ccc(C(F)(F)F)cc3)CC2)c1O` [Compound 44, N′-(5-fluoro-2-hydroxy-3-propylbenzylidene)-2-(4-(4-(trifluoromethyl)benzyl)piperazin-1-yl)acetohydrazide]: the “RLM 3 h % Stability” value in data set [2] came out at 40 ± 1%.
Still for that read-out and setting: as for `CCCc1cc(F)cc(/C=N/NC(=O)CN2CCN(C(=O)c3ccc(C(F)(F)F)cc3)CC2)c1O` [Compound 45, N′-(5-fluoro-2-hydroxy-3-propylbenzylidene)-2-(4-(4-(trifluoromethyl)benzoyl)piperazin-1-yl)acetohydrazide], the figure is 64 ± 5%.
